One experiment deals with VIM-2 (Escherichia coli, UniProt Q5U7L7). The experiment can be described thus: Inhibition of VIM-2 catalyzed Fluorocillin hydrolysis. Format: biochemical.
The target of another experiment is IMP-1 (Serratia marcescens, UniProt P52699). The experiment can be described thus: Inhibition of IMP-1 catalyzed Fluorocillin hydrolysis. Format: biochemical.
Experiment [1] addresses T1, NDM-1 (Klebsiella pneumoniae, UniProt C7C422). Kind of experiment: Inhibition of NDM-1 catalyzed Fluorocillin hydrolysis. Format: biochemical.
For a further experiment, the target named is ZnZn-NDM-1 (Klebsiella pneumoniae, UniProt C7C422). The experiment can be described thus: Equilibrium dialysis, Zn. Format: binding. The note with it: for Zn(II) retained by NDM-1 at highest tested concentration: 128 μM compound; for Inhibition mechanism against NDM-1: from equilibrium dialysis and UV-vis of CoCo-NDM-1; for Zn(II) removal from NDM-1 in equilibrium dialysis: NDM-1 8 μM, compound 16 - 128 μM; for Zn(II) removal from NDM-1 at 32 μM compound: Figure S2. Background: In equilibrium dialysis only unbound substance equilibrates across the membrane.
Sequence of ZnZn-NDM-1 (C7C422 29-270, looked up): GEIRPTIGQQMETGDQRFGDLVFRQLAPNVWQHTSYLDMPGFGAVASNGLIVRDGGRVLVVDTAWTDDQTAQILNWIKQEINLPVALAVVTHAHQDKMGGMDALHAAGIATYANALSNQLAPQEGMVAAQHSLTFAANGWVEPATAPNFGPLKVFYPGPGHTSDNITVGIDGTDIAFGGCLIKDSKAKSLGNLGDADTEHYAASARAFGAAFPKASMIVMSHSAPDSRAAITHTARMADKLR

The target of experiment [2] is T1, NDM-1. Kind of experiment: Inhibition of NDM-1 catalyzed meropenem hydrolysis. Format: biochemical.
The target of experiment [3] is T1, NDM-1. The following applies: meropenem as substrate of NDM-1.
The target of experiment [4] is T1, NDM-1. The following applies: read-out: KM, NDM-1; Fluorocillin as substrate; ref [28], [43]; cited from earlier work.

Sequence of IMP-1 (P52699 19-246, species assumed): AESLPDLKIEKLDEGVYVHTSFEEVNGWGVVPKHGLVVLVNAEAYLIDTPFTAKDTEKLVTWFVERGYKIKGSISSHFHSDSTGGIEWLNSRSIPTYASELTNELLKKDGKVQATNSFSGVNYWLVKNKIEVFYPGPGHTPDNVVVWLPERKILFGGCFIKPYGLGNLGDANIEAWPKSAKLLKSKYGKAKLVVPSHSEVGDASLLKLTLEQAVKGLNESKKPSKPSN
T1 sequence (C7C422 29-270 limits assumed): as the sequence (C7C422 29-270, looked up) above

The IC50 is the concentration that inhibits the measured activity by half. A high value points to weaker potency. Regarding `O=C(O)c1cccc(P(=O)(O)O)n1` [Compound 1, 6-Phosphonopicolinic acid], the half-maximal inhibitory concentration (IC50) at VIM-2 came to 850 ± 20 nM; against IMP-1, 850 ± 60 nM; against NDM-1 [1], 64 ± 1 nM.
For the compound `O=C(O)c1cccc(CP(=O)(O)O)n1` [Compound 2, 6-(Phosphonomethyl)picolinic acid], the “Zn(II) retained by NDM-1 at highest tested concentration” value (from here on “Zn(II) retained”) on ZnZn-NDM-1 is listed as “less than one equivalent was retained”. In addition, the “Inhibition mechanism against NDM-1” value on ZnZn-NDM-1 was “primarily via Zn(II) removal”. Besides, the IC50 at VIM-2 is 620 ± 10 nM; on IMP-1, 630 ± 10 nM; at NDM-1 [1] it was 68 ± 2 nM.
With `O=C(O)Cc1cccc(C(=O)O)n1` [Compound 3, 6-(Carboxymethyl)picolinic acid], the “Zn(II) removal from NDM-1 in equilibrium dialysis” value at ZnZn-NDM-1 is “removing only small amounts of Zn(II)”. For the same compound, the IC50 on VIM-2 was found to be 35000 ± 1000 nM; at IMP-1 it was 59000 ± 5000 nM; against NDM-1 [1], 2050 ± 90 nM; against NDM-1 [2], 7700 ± 600 nM.
For orientation: Ki means a measure of affinity in units of concentration, obtained from inhibition or displacement. Low values mean higher affinity, high ones lower affinity. For the compound `O=C(O)c1cccc(-c2nnn[nH]2)n1` [Compound 4, 6-(1H-Tetrazol-5-yl)picolinic acid], the “Zn(II) removal from NDM-1 in equilibrium dialysis” value at ZnZn-NDM-1 was “removing only small amounts of Zn(II)”. The “Inhibition mechanism against NDM-1” value on ZnZn-NDM-1 is recorded as “mainly via formation of a ternary complex”. Further, the IC50 on VIM-2 amounted to 27000 ± 2000 nM; against IMP-1, 22000 ± 1000 nM; at NDM-1 [1] it was 2190 ± 130 nM; against NDM-1 [2] it was 7000 ± 500 nM. The same compound came in with a Ki on NDM-1 [2] of 2200 ± 500 nM.
As for `O=C(O)c1cccc(CS(=O)(=O)O)n1` [Compound 5, 6-(Sulfomethyl)picolinic acid], at NDM-1 [2], the IC50 was over 10000 nM.
Same read-out and setting: the value for `CS(=O)(=O)Cc1cccc(C(=O)O)n1` [Compound 6, 6-((Methylsulfonyl)methyl)picolinic acid] was over 10000 nM.
On the same count and under the same terms, the value for `CS(=O)(=O)Nc1cccc(C(=O)O)n1` [Compound 7, 6-(Methylsulfonamido)picolinic acid] was over 10000 nM; that for `CN(Cc1cccc(C(=O)O)n1)S(C)(=O)=O` [Compound 8, 6-((N-Methylmethylsulfonamido)methyl)picolinic acid] was over 10000 nM.
Still for that read-out and setting: under `O=C(O)c1cccc(-c2nccs2)n1` [Compound 9, 6-(Thiazol-2-yl)picolinic acid] stands over 10000 nM; under `O=C(O)c1cccc(-c2ncco2)n1` [Compound 10, 6-(Oxazol-2-yl)picolinic acid], over 10000 nM; under `O=C(O)c1cc(-c2ccccc2)cc(CP(=O)(O)O)n1` [Compound 18a, 4-Phenyl-6-(phosphonomethyl)picolinic acid], 410 ± 20 nM.
As to `COc1ccc(-c2cc(CP(=O)(O)O)nc(C(=O)O)c2)cc1` [Compound 18b, 4-(4-Methoxyphenyl)-6-(phosphonomethyl)picolinic acid], on ZnZn-NDM-1, the “Zn(II) removal from NDM-1 at 32 μM compound” value is listed as “only slight Zn(II) removal”, the “Zn(II) retained” value is recorded as “one equivalent of Zn(II) was retained” and the “Zn(II) removal from NDM-1 in equilibrium dialysis” value is listed as “reduced tendency to remove Zn(II)”. On NDM-1 [2], this compound gave an IC50 of 200 ± 10 nM.
Take `COc1cccc(-c2cc(CP(=O)(O)O)nc(C(=O)O)c2)c1` [Compound 18c, 4-(3-Methoxyphenyl)-6-(phosphonomethyl)picolinic acid]: at NDM-1 [2], it took 420 ± 20 nM to reach half-maximal inhibition (IC50).
The same measure, in the same setting: under `COc1ccccc1-c1cc(CP(=O)(O)O)nc(C(=O)O)c1` [Compound 18d, 4-(2-Methoxyphenyl)-6-(phosphonomethyl)picolinic acid] stands 300 ± 10 nM.
The same measure, in the same setting: the value for `O=C(O)c1cc(-c2ccc(O)cc2)cc(CP(=O)(O)O)n1` [Compound 18e, 4-(4-Hydroxyphenyl)-6-(phosphonomethyl)picolinic acid] was 480 ± 10 nM; that for `O=C(O)c1cc(-c2cccc(O)c2)cc(CP(=O)(O)O)n1` [Compound 18f, 4-(3-Hydroxyphenyl)-6-(phosphonomethyl)picolinic acid] was 280 ± 10 nM; that for `O=C(O)c1cc(-c2ccccc2O)cc(CP(=O)(O)O)n1` [Compound 18g, 4-(2-Hydroxyphenyl)-6-(phosphonomethyl)picolinic acid] was 280 ± 10 nM.
As to `Nc1ccc(-c2cc(CP(=O)(O)O)nc(C(=O)O)c2)cc1` [Compound 18h, 4-(4-Aminophenyl)-6-(phosphonomethyl)picolinic acid], at NDM-1 [2], the IC50 was found to be 300 ± 10 nM.
As to `Nc1cccc(-c2cc(CP(=O)(O)O)nc(C(=O)O)c2)c1` [Compound 18i, 4-(3-Aminophenyl)-6-(phosphonomethyl)picolinic acid], at ZnZn-NDM-1, the “Zn(II) removal from NDM-1 at 32 μM compound” value is recorded as “only slight Zn(II) removal”, the “Zn(II) retained” value is “one equivalent of Zn(II) was retained” and the “Zn(II) removal from NDM-1 in equilibrium dialysis” value was “reduced tendency to remove Zn(II)”. For the same compound, the IC50 against NDM-1 [2] came to 400 ± 20 nM.
In turn, `Nc1ccccc1-c1cc(CP(=O)(O)O)nc(C(=O)O)c1` [Compound 18j, 4-(2-Aminophenyl)-6-(phosphonomethyl)picolinic acid] had an IC50 on NDM-1 [2] of 240 ± 10 nM.
On NDM-1 [2], `O=C(O)c1cc(-c2ccc(Cl)cc2)cc(CP(=O)(O)O)n1` [Compound 18k, 4-(4-Chlorophenyl)-6-(phosphonomethyl)picolinic acid] came in with an IC50 of 400 ± 10 nM.
On NDM-1 [2], `O=C(O)c1cc(-c2cccc(Cl)c2)cc(CP(=O)(O)O)n1` [Compound 18l, 4-(3-Chlorophenyl)-6-(phosphonomethyl)picolinic acid] had an IC50 of 1290 ± 70 nM.
`O=C(O)c1cc(-c2ccccc2Cl)cc(CP(=O)(O)O)n1` [Compound 18m, 4-(2-Chlorophenyl)-6-(phosphonomethyl)picolinic acid]: the half-inhibitory concentration (IC50) on NDM-1 [2] is 950 ± 50 nM.
`O=C(O)c1cccc(C(=O)O)n1` [DPA, dipicolinic acid, reference compound]: the “Zn(II) removal from NDM-1 in equilibrium dialysis” value at ZnZn-NDM-1 is recorded as “significantly reduced”. The half-inhibitory concentration (IC50) against VIM-2 was found to be 2340 ± 40 nM; against NDM-1 [1], 330 ± 40 nM.
Consider `C[C@H](CS)C(=O)N1CCC[C@H]1C(=O)O` [L-captopril, reference compound], for which, on ZnZn-NDM-1, the “Zn(II) removal from NDM-1 in equilibrium dialysis” value is reported as “did not show any evidence of Zn(II) removal”.
As a reminder, the kcat is the number of substrate molecules converted per active site and unit of time at saturation. `C[C@@H](O)[C@H]1C(=O)N2C(C(=O)O)=C(S[C@@H]3CN[C@H](C(=O)N(C)C)C3)[C@H](C)[C@H]12` [Meropenem, meropenem]: on NDM-1 [3], the kcat was 15.3 ± 0.4 s⁻¹.
In general, Km refers to the concentration of substrate that gives half-maximal velocity. Fluorocillin: on NDM-1 [4], the Km is 0.46 µM.
